Measured values: patent US7723329B2, “Substituted-3-sulfonylindazole derivatives as 5-hydroxytryptamine-6 ligands” (Wyeth LLC, priority 2005, dated 2010)
pKi: −log10 of the molar value. Structures can show the parent of a compound that is named as a salt.

Target: T1, human cloned 5-HT6 receptors (Homo sapiens, UniProt P50406)
T1 construct: expressed in transfected cells; host or cells: HeLa cells
Assay: 5-HT6 binding affinity, [3H]-LSD displacement
Settings: membranes of Hela cells expressing human cloned 5-HT6 receptors; [3H]-LSD 3.0 nM; 120 minutes at room temperature
Experimental: The affinity of test compounds for the serotonin 5-HT6 receptor was evaluated in the following manner. Cultured Hela cells expressing human cloned 5-HT6 receptors were harvested and centrifuged at low speed (1,000×g) for 10.0 minutes to remove the culture media. The harvested cells were suspended in half volume of fresh physiological phosphate buffered saline solution and recentrifuged at the same speed. This operation was repeated. The collected cells were then homogenized in ten volumes of 50 mM Tris.HCl (pH 7.4) and 0.5 mM EDTA. The homogenate was centrifuged at 40,000×g for 30.0 min and the precipitate was collected. The obtained pellet was resuspended in 10 volumes of Tris.HCl buffer and recentrifuged at the same speed. The final pellet was suspended in a small volume of Tris.HCl buffer and the tissue protein content was determined in aliquots of 10-25 μl volumes. […] The volume of the suspended cell membranes was adjusted to give a tissue protein concentration of 1.0 mg/ml of suspension. The prepared membrane suspension (10 times concentrated) was aliquoted in 1.0 ml volumes and stored at −70° C. until used in subsequent binding experiments.
The bound complex caught on the filter disk was allowed to air dry and the radioactivity is measured in a Packard TopCount® equipped with six photomultiplier detectors, after the addition of 40.0 μl Microscint®-20 scintillant to each shallow well. The unifilter plate was heat-sealed and counted in a PackardTopCount® with a tritium efficiency of 31.0%.
Specific binding to the 5-HT6 receptor was defined as the total radioactivity bound less the amount bound in the presence of 10.0 μM unlabeled methiothepin. Binding in the presence of varying concentrations of test compound was expressed as a percentage of specific binding in the absence of test compound. The results were plotted as log % bound versus log concentration of test compound. […] A linear regression line of data points was plotted, from which the IC50 value is determined and the Ki value is determined based upon the following equation: Ki=IC50/(1+L/KD) where L was the concentration of the radioactive ligand used and KD is the dissociation constant of the ligand for the receptor, both expressed in nM.

T1 sequence (P50406 whole entry): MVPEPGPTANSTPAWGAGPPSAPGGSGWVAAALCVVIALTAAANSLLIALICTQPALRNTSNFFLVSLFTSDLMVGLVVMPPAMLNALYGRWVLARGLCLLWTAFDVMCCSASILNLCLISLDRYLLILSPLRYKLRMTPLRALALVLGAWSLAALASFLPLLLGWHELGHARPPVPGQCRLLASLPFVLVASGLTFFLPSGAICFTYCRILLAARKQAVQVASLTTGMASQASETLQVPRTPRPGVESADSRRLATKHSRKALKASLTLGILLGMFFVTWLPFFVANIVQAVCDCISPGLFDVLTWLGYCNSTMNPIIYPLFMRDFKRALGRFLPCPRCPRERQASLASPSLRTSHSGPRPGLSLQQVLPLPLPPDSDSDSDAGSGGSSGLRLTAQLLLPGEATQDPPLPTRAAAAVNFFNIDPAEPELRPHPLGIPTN

| SMILES | pKi |
| --- | --- |
| O=S(=O)(c1ccccc1)c1n[nH]c2c(CCNC3CC3)cccc12 [Example 172, N-{2-[3-(phenylsulfonyl)-1H-indazol-7-yl]ethyl}cyclopropanamine hydrochloride] | 7.60 to 7.96 |
| O=S(=O)(c1cccc2ccccc12)c1nn(Cc2cccc(Cl)c2)c2ccc(OCCN3CCCC3)cc12 [Example 58, 1-(3-Chloro-benzyl)-3-(naphthalene-1-sulfonyl)-5-(2-pyrrolidin-1-yl-ethoxy)-1H-indazole] | 7.46 to 7.59 |
| CNCCOc1ccc2[nH]nc(S(=O)(=O)c3ccccc3)c2c1 [Example 12, [2-(3-Benzenesulfonyl-1H-indazol-5-yloxy)-ethyl]-methyl-amine] | 7.60 to 7.96 |
| CC(C)NCCOc1ccc2c(c1)c(S(=O)(=O)c1cccc3ccccc13)nn2Cc1cccc(Cl)c1 [Example 57, {2-[1-(3-Chloro-benzyl)-3-(naphthalene-1-sulfonyl)-1H-indazol-5-yloxy]-ethyl}-isopropyl-amine] | 7.35 to 7.44 |
| NCCOc1ccc2[nH]nc(S(=O)(=O)c3ccccc3)c2c1 [Example 13, 2-(3-Benzenesulfonyl-1H-indazol-5-yloxy)-ethylamine] | 7.35 to 7.44 |
| O=S(=O)(c1cccc2ccccc12)c1n[nH]c2cc(OCCN3CCCCC3)ccc12 [Example 149] | < 7.35 |
| CCN(CC)CCCOc1cccc2c(S(=O)(=O)c3cccc4ccccc34)nn(Cc3cccc(Cl)c3)c12 [Example 131] | 7.60 to 7.96 |
| CNCCOc1cccc2c(S(=O)(=O)c3ccccc3)nn(Cc3cccc(Cl)c3)c12 [Example 82] | 7.60 to 7.96 |
| O=S(=O)(c1cccc2ccccc12)c1nn(Cc2cccc(Cl)c2)c2c(OCCCN3CCCC3)cccc12 [Example 133] | 7.60 to 7.96 |
| COc1cc(OCCN2CCCC2)c2c(c1)c(S(=O)(=O)c1cccc3ccccc13)nn2Cc1cccc(Cl)c1 [Example 123] | < 7.35 |
| C[C@@H]1CN(Cc2ccc3[nH]nc(S(=O)(=O)c4cccc5ccccc45)c3c2)CCN1 [Example 200] | 8.00 to 11.00 |
| CN1CCN(Cc2ccc3[nH]nc(S(=O)(=O)c4cccc5ccccc45)c3c2)CC1 [Example 196] | 8.00 to 11.00 |
| O=S(=O)(c1cccc2ccccc12)c1n[nH]c2ccc(OCCCN3CCCCC3)cc12 [Example 24, 3-(Naphthalene-1-sulfonyl)-5-(3-piperidin-1-yl-propoxy)-1H-indazole] | 8.00 to 11.00 |
| CCNCCOc1ccc2c(c1)c(S(=O)(=O)c1cccc3ccccc13)nn2Cc1ccccc1 [Example 53, {2-[1-Benzyl-3-(naphthalene-1-sulfonyl)-1H-indazol-5-yloxy]-ethyl}-ethyl-amine] | 7.60 to 7.96 |
| O=S(=O)(c1cccc2ccccc12)c1nn(Cc2ccccc2)c2ccc(OCCN3CCCC3)cc12 [Example 52, 1-Benzyl-3-(naphthalene-1-sulfonyl)-5-(2-pyrrolidin-1-yl-ethoxy)-1H-indazole] | < 7.35 |
| CCN(C)CCOc1ccc2c(c1)c(S(=O)(=O)c1cccc3ccccc13)nn2Cc1cccc(Cl)c1 [Example 55, {2-[1-(3-Chloro-benzyl)-3-(naphthalene-1-sulfonyl)-1H-indazol-5-yloxy]-ethyl}-ethyl-methyl-amine] | < 7.35 |
| O=S(=O)(c1cccc2ccccc12)c1n[nH]c2ccc(CN[C@H]3CCNC3)cc12 [Example 154, (3S)—N-{([3-(1-Naphthylsulfonyl)-1H-indazol-5-yl]methyl}pyrrolidin-3-amine Hydrochloride] | 7.60 to 7.96 |
| O=S(=O)(c1ccccc1)c1n[nH]c2ccc(OCCN3CCCC3)cc12 [Example 11, 3-Benzenesulfonyl-5-(2-pyrrolidin-1-yl-ethoxy)-1H-indazole] | 8.00 to 11.00 |
| O=S(=O)(c1cccc2ccccc12)c1nn(Cc2cccc(Cl)c2)c2c(OCCCN3CCCCC3)cccc12 [Example 132] | 7.46 to 7.59 |
| Cn1nc(S(=O)(=O)c2ccccc2)c2cccc(OCCN3CCCCC3)c21 [Example 105] | < 7.35 |
| CC(C)NCCOc1ccc2c(c1)c(S(=O)(=O)c1cccc3ccccc13)nn2C [Example 45, Isopropyl-{2-[1-methyl-3-(naphthalene-1-sulfonyl)-1H-indazol-5-yloxy]-ethyl}-amine] | 8.00 to 11.00 |
| CCNCCOc1cccc2c(S(=O)(=O)c3ccccc3)nn(Cc3cccc(Cl)c3)c12 [Example 83] | 7.46 to 7.59 |
| CCN(CC)CCOc1cccc2c(S(=O)(=O)c3ccccc3)nn(Cc3cccc(Cl)c3)c12 [Example 84] | < 7.35 |

More lines, now with the values ahead:

| pKi | SMILES |
| --- | --- |
| 8.00 to 11.00 | CNCCCOc1ccc2[nH]nc(S(=O)(=O)c3cccc4ccccc34)c2c1 [Example 15, Methyl-{3-[3-(naphthalene-1-sulfonyl)-1H-indazol-5-yloxy]-propyl}-amine] |
| 8.00 to 11.00 | O=S(=O)(c1cccc2ccccc12)c1n[nH]c2ccc(OCCCNC3CC3)cc12 [Example 20, Cyclopropyl-{3-[3-(naphthalene-1-sulfonyl)-1H-indazol-5-yloxy]-propyl}-amine] |
| 8.00 to 11.00 | CCN(CC)CCOc1ccc2c(c1)c(S(=O)(=O)c1cccc3ccccc13)nn2C [Example 43, Diethyl-{2-[1-methyl-3-(naphthalene-1-sulfonyl)-1H-indazol-5-yloxy]-ethyl}-amine] |
| 8.00 to 11.00 | CCNCCCOc1ccc2[nH]nc(S(=O)(=O)c3cccc4ccccc34)c2c1 [Example 16, Ethyl-{3-[3-(naphthalene-1-sulfonyl)-1H-indazol-5-yloxy]-propyl}-amine] |
| 7.35 to 7.44 | CN(C)CCCOc1cccc2c(S(=O)(=O)c3cccc4ccccc34)n[nH]c12 [Example 136] |
| 8.00 to 11.00 | CN(C)CCOc1ccc2c(c1)c(S(=O)(=O)c1cccc3ccccc13)nn2C [Example 41, Dimethyl-{2-[1-methyl-3-(naphthalene-1-sulfonyl)-1H-indazol-5-yloxy]-ethyl}-amine] |
| 8.00 to 11.00 | CN(C)CCNC(=O)c1ccc2[nH]nc(S(=O)(=O)c3cccc4ccccc34)c2c1 [Example 151, N-[2-(Dimethylamino)ethyl]-3-(1-naphthylsulfonyl)-1H-indazole-5-carboxamide] |
| 8.00 to 11.00 | CC(C)NCCOc1ccc2[nH]nc(S(=O)(=O)c3cccc4ccccc34)c2c1 [Example 28, Isopropyl-{2-[3-(naphthalene-1-sulfonyl)-1H-indazol-5-yloxy]-ethyl}-amine] |
| 8.00 to 11.00 | CN(C)CCOc1ccc2[nH]nc(S(=O)(=O)c3cccc4ccccc34)c2c1 [Example 27, Dimethyl-{2-[3-(naphthalene-1-sulfonyl)-1H-indazol-5-yloxy]-ethyl}-amine] |
| 7.46 to 7.59 | CCCCNCCOc1cccc2c(S(=O)(=O)c3cccc4ccccc34)nn(C)c12 [Example 98] |
| 8.00 to 11.00 | CCN(CC)CCCCOc1ccc2[nH]nc(S(=O)(=O)c3cccc4ccccc34)c2c1 [Example 66] |
| 7.46 to 7.59 | CCN(CC)CCC(=O)Nc1cccc2c(S(=O)(=O)c3cccc4ccccc34)n[nH]c12 [Example 166, 3-Diethylamino-N-[3-(naphthalene-1-sulfonyl)-1H-indazol-7-yl]-propionamide hydrochloride] |
| 8.00 to 11.00 | O=S(=O)(c1cccc2ccccc12)c1n[nH]c2ccc(OCCNC3CC3)cc12 [Example 36, Cyclopropyl-{2-[3-(naphthalene-1-sulfonyl)-1H-indazol-5-yloxy]-ethyl}-amine] |
| 8.00 to 11.00 | CN(C)CCOc1cccc2c(S(=O)(=O)c3cccc4ccccc34)n[nH]c12 [Example 78] |
| < 7.35 | COc1cc(OCCN(C)C)c2c(c1)c(S(=O)(=O)c1cccc3ccccc13)nn2Cc1cccc(Cl)c1 [Example 121] |
| 8.00 to 11.00 | CN(C)CCc1cccc2c(S(=O)(=O)c3ccccc3)n[nH]c12 [Example 171, N,N-Dimethyl-N-{2-[3-(phenylsulfonyl)-1H-indazol-7-yl]ethyl}amine hydrochloride] |
| 7.60 to 7.96 | COc1cc(OCCN(C)C)c2[nH]nc(S(=O)(=O)c3cccc4ccccc34)c2c1 [Example 125] |
| 8.00 to 11.00 | CNCCOc1cccc2c(S(=O)(=O)c3cccc4ccccc34)n[nH]c12 [Example 77] |
| 8.00 to 11.00 | CN(C)CCCc1ccc2[nH]nc(S(=O)(=O)c3cccc4ccccc34)c2c1 [Example 182, N,N-Dimethyl-N-{3-[3-(naphthylsulfonyl)-1H-indazol-5-yl]propyl}amine hydrochloride] |
| 7.46 to 7.59 | CCN(CC)CCCOc1cccc2c(S(=O)(=O)c3cccc4ccccc34)n[nH]c12 [Example 137] |
| 8.00 to 11.00 | COc1cc(OCCN2CCCCC2)c2[nH]nc(S(=O)(=O)c3cccc4ccccc34)c2c1 [Example 126] |
| 8.00 to 11.00 | CN(C)CCOCc1ccc2[nH]nc(S(=O)(=O)c3cccc4ccccc34)c2c1 [Example 156, N,N-Dimethyl-2-{[3-(1-naphthylsulfonyl)-1H-indazol-5-yl]methoxy}ethanamine] |
| 8.00 to 11.00 | NCCCCOc1ccc2[nH]nc(S(=O)(=O)c3cccc4ccccc34)c2c1 [Example 68, (4-{[3-(1-naphthylsulfonyl)-1H-indazol-5-yl]oxy}butyl)amine] |
